Consider ten molecules from patent publication US7648999B2, “Activator for peroxisome proliferator-activated receptor δ” (Nippon Chemiphar Co., Ltd., priority 2007, dated 2010).

One assay concerns db/db mice. The assay can be described thus: HDL cholesterol elevating effect in db/db mice. Conditions: for Ratio of increasing HDL cholesterol (% to control): 10 mg/kg/b.i.d. orally for one week, serum 16 hours after final administration; for HDL cholesterol elevating effect (in words): oral, one week twice daily. The class given is in vivo. The method, then: HDL cholesterol elevating effect was measured by using db/db mice, which are hereditary obesity mice. The db/db mice (10 weeks old) were divided into groups based on serum HDL cholesterol levels. […] Mice of the control group (to which no agent was administered) were orally given 1% methyl cellulose solution. After 16 hours from the final administration, blood sample was collected, and serum HDL cholesterol level was measured. HDL cholesterol was separated by electrophoresis on agarose gels (Chol/Trig Combo, Helena Laboratories). […] HDL cholesterol levels were calculated from total cholesterol levels and HDL cholesterol/total cholesterol ratios.
Each value represents as % of the control group.

A further assay has as its target T1, PPARδ (GAL4-hPPARδ LBD) (Homo sapiens, UniProt Q03181).
T1 construct: A chimeric receptor expression plasmid (GAL4-hPPARδ LBD), a reporter plasmid (UASx4-TK-LUC); expressed in transfected cells; host or cells: CV-1 cells
T1 sequence (Q03181 211-439 limits assumed): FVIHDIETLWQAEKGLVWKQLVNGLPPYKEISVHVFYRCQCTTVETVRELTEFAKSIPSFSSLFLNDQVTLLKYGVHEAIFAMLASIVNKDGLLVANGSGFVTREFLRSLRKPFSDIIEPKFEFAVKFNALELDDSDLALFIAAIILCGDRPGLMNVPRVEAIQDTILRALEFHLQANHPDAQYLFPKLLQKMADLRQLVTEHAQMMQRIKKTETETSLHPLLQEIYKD
Kind of assay: PPARδ transactivation activity (GAL4 chimera luciferase reporter in CV-1 cells). The class given is cell-based. How it is done: A chimeric receptor expression plasmid (GAL4-hPPARδ LBD), a reporter plasmid (UASx4-TK-LUC) and β-galactosidase (β-GAL) are transfected into CV-1 cells by utilizing a lipofection reagent DMRIE-C (Life Technologies).
(1) Measurement of PPARα, γ, δ Transactivation Activity
CV-1 cells were obtained from Tohoku University Aging Medical Laboratory, Medical Cell Collection Center. All test compounds were dissolved in dimethylsulfoxide (DMSO). Final concentration of DMSO was 0.1%.
CV-1 cells were seeded in 24 well culture plates at 2×10^5 cells per well, and cultured for 24 hours OPTI-MEM I Reduced Serum Medium (Life Technologies, 500 μL/well) containing 4%-fetal bovine serum (FBS). After washing with OPTI-MEM, transfection mixture (250 μL/well) containing 0.03 μg of GAL4-hPPARδ LBD, 0.25 μg of UASx-4-TK-LUC, 0.35 μg of βGAL, and 2 μL of lipofection reagent, DMRIE-C (Life Technologies) were added. The cells were incubated for 5 hours at 37° C.
The cells were washed and incubated for 40 hours in the presence of the test compound (final concentration was 10^−7M or 10^−6M)
The culture medium was removed and the cells were washed with PBS twice. A solubilizing buffer (100 μL/well) containing 25 mM Tris-PO4 (pH 7.8), 15% v/v glycerol, 2% CHAPS, 1% Lecithin, 1% BSA, 4 mM EGTA (pH 8.0), 8 mM MgCl2, 1 mM DTT was added. After the incubation for 10 minutes at room temperature, a portion (20 μL) of the solution was transferred into a 96-well plate. Subsequently, 100 μL of luciferase substrate solution (Piccagene: available from Nippon Gene Co., Ltd.) was added, and a luminous intensity per one second (luciferase activity) was measured using a microluminoreader (Type MLR-100, Corona Electrics Co., Ltd.). Each luciferase activity was corrected by the transfection efficiency which was calculated from β-galactosidase activity. The assay method of β-galactosidase activity was as follows: A portion (50 μL) of the solubilized sample was transferred into another 96-well plate; 100 μL of ONPG (2-nitrophenyl-β-galactopyranoside) solution was added and incubated for 5 minutes at room temperature. 50 μL of a reaction stopping solution (1M sodium carbonate solution) was added. Then the absorbance at 414 nm was measured.
For orientation: A reporter such as luciferase makes a cellular process visible.

In a further assay the target is T2, PPARγ (GAL4-hPPARγ LBD) (Homo sapiens, UniProt P37231).
T2 construct: Receptor expression plasmid (GAL4-hPPARα, LBD GAL4-hPPARγ LBD, GAL4-hPPARδ LBD); expressed in transfected cells; host or cells: CV-1 cells
T2 sequence (P37231 238-503 limits assumed): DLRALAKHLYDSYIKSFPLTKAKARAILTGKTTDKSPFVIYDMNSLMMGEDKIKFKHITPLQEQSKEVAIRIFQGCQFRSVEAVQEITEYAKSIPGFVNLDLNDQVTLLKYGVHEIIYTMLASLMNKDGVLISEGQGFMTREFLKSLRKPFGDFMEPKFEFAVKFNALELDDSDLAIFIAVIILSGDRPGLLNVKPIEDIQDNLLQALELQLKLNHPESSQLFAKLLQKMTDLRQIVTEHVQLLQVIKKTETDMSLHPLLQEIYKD
The assay can be described thus: PPARγ transactivation activity (GAL4 chimera luciferase reporter in CV-1 cells). Format: cell-based.

A further assay has as its target T3, PPARα (GAL4-hPPARα LBD) (Homo sapiens, UniProt Q07869).
T3 construct: Receptor expression plasmid (GAL4-hPPARα, LBD GAL4-hPPARγ LBD, GAL4-hPPARδ LBD); expressed in transfected cells; host or cells: CV-1 cells
T3 sequence (Q07869 239-466 limits assumed): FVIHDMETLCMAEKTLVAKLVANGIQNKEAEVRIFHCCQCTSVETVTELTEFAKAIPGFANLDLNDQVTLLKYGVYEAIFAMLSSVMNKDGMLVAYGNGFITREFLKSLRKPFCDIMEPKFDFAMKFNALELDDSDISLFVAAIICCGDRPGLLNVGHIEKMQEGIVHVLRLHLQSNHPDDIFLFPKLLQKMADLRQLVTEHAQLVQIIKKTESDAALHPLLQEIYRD
Kind of assay: PPARα transactivation activity (GAL4 chimera luciferase reporter in CV-1 cells). The class given is cell-based.

Setting [1] is: compound at 10^−7 M (value without parentheses).
Setting [2] is: compound at 10^−6 M (value in parentheses).

`Cc1cc(C(=O)CCc2sc(-c3ccc(C(F)(F)F)cc3)nc2C(C)C)ccc1OC(C)(C)C(=O)O` [Example 4, 2-[4-[3-[2-(4-Trifluoromethyl)phenyl-4-isopropyl-5-thiazolyl]propionyl]-2-methylphenoxy]-2-methylpropionic acid]: in the assay with db/db mice, the “Ratio of increasing HDL cholesterol (% to control)” value is 176 % to control and the “HDL cholesterol elevating effect (in words)” value is “excellent effect of increasing HDL cholesterol”. At PPARδ (GAL4-hPPARδ LBD) (compound at 10^−7 M, CV-1 cells, 40 hours, positive control 10^−4 M L-165041 = 100%), the “Relative activity for PPAR transactivation, δ” value (shortened to “Relative activity … δ”) is listed as 86 % of control. Further, at PPARγ (GAL4-hPPARγ LBD) (compound at 10^−7 M, CV-1 cells, 40 hours, positive control 10^−5 M Rosiglitazone = 100%), the “Relative activity for PPAR transactivation, γ” value (“Relative activity … γ” below) is listed as 12 % of control. Also, the “Relative activity for PPAR transactivation, α” value (from here on “Relative activity … α”) at PPARα (GAL4-hPPARα LBD) (compound at 10^−7 M, CV-1 cells, 40 hours, positive control 10^−4 M WY-14643 = 100%) is recorded as 11 % of control.

Take `Cc1cc(C=CCc2sc(-c3ccc(C(F)(F)F)cc3)nc2C(C)C)ccc1OCC(=O)O` [Example 10, [4-[3-[4-Isopropyl-2-(4-trifluoromethyl)phenyl-5-thiazolyl]-1-propenyl]-2-methylphenoxy]acetic acid]: in the assay on db/db mice, the “Ratio of increasing HDL cholesterol (% to control)” value was 134 % to control and the “HDL cholesterol elevating effect (in words)” value is “excellent effect of increasing HDL cholesterol”. In addition, the “Relative activity … δ” value on PPARδ (GAL4-hPPARδ LBD) (setting [1]) is 67 % of control. Further, the “Relative activity … γ” value at PPARγ (GAL4-hPPARγ LBD) (setting [1]) is on record as 1 % of control. The “Relative activity … α” value at PPARα (GAL4-hPPARα LBD) (setting [1]) is listed as 0 % of control.

For `CC(C)c1nc(-c2ccc(C(F)(F)F)cc2)sc1CCC(=O)c1ccc(OCC(=O)O)c(Cl)c1` [Example 33, [4-[3-[4-Isopropyl-2-(4-trifluoromethyl)phenyl-5-thiazolyl]propionyl]-2-chlorophenoxy]acetic acid], the “Relative activity … δ” value on PPARδ (GAL4-hPPARδ LBD) (setting [1]) is on record as 44 % of control. For the same molecule, the “Relative activity … γ” value on PPARγ (GAL4-hPPARγ LBD) (setting [1]) is on record as 1 % of control. For the same molecule, the “Relative activity … α” value at PPARα (GAL4-hPPARα LBD) (setting [1]) is recorded as 0 % of control.

Regarding `CC(C)c1nc(-c2ccc(C(F)(F)F)cc2)sc1CCC(=O)c1ccc(OC(C)(C)C(=O)O)c(Cl)c1` [Example 34, [4-[3-[2-(4-Trifluoromethyl)phenyl-4-isopropyl-5-thiazolyl]propionyl]-2-chlorophenoxy]-2-methylpropionic acid], the “Relative activity … δ” value on PPARδ (GAL4-hPPARδ LBD) (setting [1]) is on record as 66 % of control. Also, the “Relative activity … γ” value on PPARγ (GAL4-hPPARγ LBD) (setting [1]) is on record as 3 % of control. The “Relative activity … α” value on PPARα (GAL4-hPPARα LBD) (setting [1]) is 5 % of control.

Turning to `Cc1cc(C(=O)CCc2nc(-c3ccc(C(F)(F)F)cc3)sc2C(C)C)ccc1OC(C)(C)C(=O)O` [Example 38, 2-[4-[3-[5-Isopropyl-2-(4-trifluoromethyl)phenyl-4-thiazolyl]propionyl]-2-methylphenoxy]-2-methylpropionic acid], the “Relative activity … δ” value on PPARδ (GAL4-hPPARδ LBD) (setting [2]) is listed as “(69) % of control”. Besides, the “Relative activity … γ” value on PPARγ (GAL4-hPPARγ LBD) (setting [2]) is on record as “(9) % of control”. For the same molecule, the “Relative activity … α” value at PPARα (GAL4-hPPARα LBD) (setting [2]) is “(3) % of control”.

Take `Cc1cc(C(=O)CCc2sc(-c3ccc(C(F)(F)F)cc3)nc2C(C)C)ccc1OC(C)C(=O)O` (stereo not shown) [Example 43, 2-[4-[3-[4-Isopropyl-2-(4-trifluoromethyl)phenyl-5-thiazolyl]propionyl]-2-methylphenoxy]propionic acid]: at PPARδ (GAL4-hPPARδ LBD) (setting [1]), the “Relative activity … δ” value was 42 % of control. Besides, the “Relative activity … γ” value at PPARγ (GAL4-hPPARγ LBD) (setting [1]) is recorded as 5 % of control. Further, the “Relative activity … α” value on PPARα (GAL4-hPPARα LBD) (setting [1]) is given as 3 % of control.

As for `CCCCCCc1nc(-c2ccc(C(F)(F)F)cc2)sc1CC=Cc1ccc(OC(C)(C)C(=O)O)c(C)c1` [Example 45, 2-[4-[3-[4-Hexyl-2-(4-trifluoromethyl)phenyl-5-thiazolyl]-1-propenyl]-2-methylphenoxy]-2-methylpropionic acid], the “Relative activity … δ” value at PPARδ (GAL4-hPPARδ LBD) (setting [1]) is reported as 49 % of control. Further, at PPARγ (GAL4-hPPARγ LBD) (setting [1]), the “Relative activity … γ” value was 20 % of control. In addition, on PPARα (GAL4-hPPARα LBD) (setting [1]), the “Relative activity … α” value is 90 % of control.

On to `CCCCCCc1nc(-c2ccc(C(F)(F)F)cc2)sc1CCC(=O)c1ccc(C)c(OC(C)(C)C(=O)O)c1` [Example 46, 2-[5-[3-[4-Hexyl-2-(4-trifluoromethyl)phenyl-5-thiazolyl]propionyl]-2-methylphenoxy]-2-methylpropionic acid], for which, on PPARδ (GAL4-hPPARδ LBD) (setting [2]), the “Relative activity … δ” value is recorded as “(46) % of control”. Moreover, at PPARγ (GAL4-hPPARγ LBD) (setting [2]), the “Relative activity … γ” value is “(69) % of control”. Besides, the “Relative activity … α” value on PPARα (GAL4-hPPARα LBD) (setting [2]) is on record as “(78) % of control”.

Regarding `CCc1nc(-c2ccc(C(F)(F)F)cc2)sc1CCC(=O)c1ccc(OCC(=O)O)c(C)c1` [Example 47, [4-[3-[4-Ethyl-2-(4-trifluoromethyl)phenyl-5-thiazolyl]propionyl]-2-methylphenoxy]acetic acid], the “Relative activity … δ” value at PPARδ (GAL4-hPPARδ LBD) (setting [1]) is 57 % of control. Also, on PPARγ (GAL4-hPPARγ LBD) (setting [1]), the “Relative activity … γ” value is on record as 0 % of control. Besides, the “Relative activity … α” value at PPARα (GAL4-hPPARα LBD) (setting [1]) is recorded as 0 % of control.

`CCc1nc(-c2ccc(C(F)(F)F)cc2)sc1CCC(=O)c1ccc(OC(C)(C)C(=O)O)c(C)c1` [Example 48, 2-[4-[3-[4-Ethyl-2-(4-trifluoromethyl)phenyl-5-thiazolyl]propionyl]-2-methylphenoxy]-2-methylpropionic acid]: the “Relative activity … δ” value at PPARδ (GAL4-hPPARδ LBD) (setting [2]) is listed as “(51) % of control”. The “Relative activity … γ” value at PPARγ (GAL4-hPPARγ LBD) (setting [2]) was “(13) % of control”. In addition, the “Relative activity … α” value on PPARα (GAL4-hPPARα LBD) (setting [2]) is recorded as “(84) % of control”.
